Data: PubChem BioAssay AID1259407 (Chemical Carcinogenesis Research Information System (CCRIS), 2018)
Calls of active or inactive are those of the source. No rule for the calls is given here.

System: CCRIS mutagenicity, Ames/micronucleus/aberration tests
Assay: CCRIS mutagenicity studies
[1] = Test System: AMES SALMONELLA TYPHIMURIUM, Strain/Indicator: TA97, Metabolic Activation: NONE, Method: STANDARD PLATE
[2] = Test System: AMES SALMONELLA TYPHIMURIUM, Strain/Indicator: TA97, Metabolic Activation: RAT, LIVER, S-9, AROCLOR 1254, Method: STANDARD PLATE
[3] = Test System: AMES SALMONELLA TYPHIMURIUM, Strain/Indicator: TA98, Metabolic Activation: NONE, Method: STANDARD PLATE
[4] = Test System: AMES SALMONELLA TYPHIMURIUM, Strain/Indicator: TA98, Metabolic Activation: RAT, LIVER, S-9, AROCLOR 1254, Method: STANDARD PLATE
[5] = Test System: AMES SALMONELLA TYPHIMURIUM, Strain/Indicator: TA100, Metabolic Activation: NONE, Method: STANDARD PLATE
[6] = Test System: AMES SALMONELLA TYPHIMURIUM, Strain/Indicator: TA100, Metabolic Activation: RAT, LIVER, S-9, AROCLOR 1254, Method: STANDARD PLATE
[7] = Test System: AMES SALMONELLA TYPHIMURIUM, Strain/Indicator: TA98, Metabolic Activation: NONE, Method: PREINCUBATION
[8] = Test System: AMES SALMONELLA TYPHIMURIUM, Strain/Indicator: TA100, Metabolic Activation: NONE, Method: PREINCUBATION
[9] = Test System: AMES SALMONELLA TYPHIMURIUM, Strain/Indicator: TA1535, Metabolic Activation: NONE, Method: PREINCUBATION

## O=C1CCC(N2C(=O)c3ccccc3C2=O)C(=O)N1 (stereo not given)
[1]
  mutagenic call: inactive; negative
[2]
  mutagenic call: inactive; negative
[3]
  mutagenic call: inactive; negative
Test System: AMES SALMONELLA TYPHIMURIUM, Strain/Indicator: TA98, Metabolic Activation: RAT, LIVER, S-9, AROCLOR 1254 (4, 10 OR 30%), Method: PREINCUBATION
  mutagenic call: inactive; negative
[4]
  mutagenic call: inactive; negative
[5]
  mutagenic call: inactive; negative
Test System: AMES SALMONELLA TYPHIMURIUM, Strain/Indicator: TA100, Metabolic Activation: RAT, LIVER, S-9, AROCLOR 1254 (10%), Method: PREINCUBATION
  mutagenic call: inactive; negative
[6]
  mutagenic call: inactive; negative
Test System: AMES SALMONELLA TYPHIMURIUM, Strain/Indicator: TA1535, Metabolic Activation: NONE, Method: STANDARD PLATE
  mutagenic call: inactive; negative
Test System: AMES SALMONELLA TYPHIMURIUM, Strain/Indicator: TA1535, Metabolic Activation: RAT, LIVER, S-9, AROCLOR 1254, Method: STANDARD PLATE
  mutagenic call: inactive; negative
Test System: AMES SALMONELLA TYPHIMURIUM, Strain/Indicator: TA1537, Metabolic Activation: NONE, Method: STANDARD PLATE
  mutagenic call: inactive; negative
Test System: AMES SALMONELLA TYPHIMURIUM, Strain/Indicator: TA1537, Metabolic Activation: RAT, LIVER, S-9, AROCLOR 1254, Method: STANDARD PLATE
  mutagenic call: inactive; negative
Test System: AMES SALMONELLA TYPHIMURIUM, Strain/Indicator: TA1538, Metabolic Activation: NONE, Method: STANDARD PLATE
  mutagenic call: inactive; negative
Test System: AMES SALMONELLA TYPHIMURIUM, Strain/Indicator: TA1538, Metabolic Activation: RAT, LIVER, S-9, AROCLOR 1254, Method: STANDARD PLATE
  mutagenic call: inactive; negative
Test System: MOUSE LYMPHOMA, Strain/Indicator: L5178Y (TK+/TK-), Metabolic Activation: NONE, Method: MICROWELL
  mutagenic call: inactive; negative
Test System: MOUSE LYMPHOMA, Strain/Indicator: L5178Y (TK+/TK-), Metabolic Activation: RAT, LIVER, S-9, PHENOBARBITAL AND BETA-NAPHTHOFLAVONE, Method: MICROWELL
  mutagenic call: inactive; negative

## COc1cccc2c1C(=O)c1c(O)c3c(c(O)c1C2=O)CC(O)(C(C)=O)CC3OC1CC(N(C)C)C(O)C(C)O1 (stereo not given)
Test System: CHINESE HAMSTER V-79, Strain/Indicator: V-79/8-AZAGUANINE, Metabolic Activation: RAT, HEPATOCYTES
  mutagenic call: inactive; negative
Test System: UDS RAT HEPATOCYTES, Strain/Indicator: THY INCORP, Metabolic Activation: NONE, Method: AUTOMATIC COLONY COUNTER
  mutagenic call: active; positive

## CN1CCC[C@H]1c1cccnc1
End Point: IN VITRO MICRONUCLEUS, Test System: HUMAN GINGIVAL FIBROBLASTS, Metabolic Activation: NONE
  mutagenic call: active; positive
End Point: In vivo micronucleus, Test System: Bone marrow polychromatic erythrocytes, Species: Mouse, Strain/Sex: Swiss/Female, Route: Oral
  mutagenic call: inactive; negative
[1]
  mutagenic call: inactive; negative
[2]
  mutagenic call: inactive; negative
[7]
  mutagenic call: inactive; negative
[3]
  mutagenic call: inactive; negative
Test System: AMES SALMONELLA TYPHIMURIUM, Strain/Indicator: TA98, Metabolic Activation: RAT, LIVER, S-9, AROCLOR 1254 (5%), Method: PREINCUBATION
  mutagenic call: inactive; negative
[4]
  mutagenic call: inactive; negative
[8]
  mutagenic call: inactive; negative
[5]
  mutagenic call: inactive; negative
Test System: AMES SALMONELLA TYPHIMURIUM, Strain/Indicator: TA100, Metabolic Activation: RAT, LIVER, S-9, AROCLOR 1254 (5%), Method: PREINCUBATION
  mutagenic call: inactive; negative
[6]
  mutagenic call: inactive; negative
[9]
  mutagenic call: inactive; negative
Test System: AMES SALMONELLA TYPHIMURIUM, Strain/Indicator: TA1535, Metabolic Activation: RAT, LIVER, S-9, AROCLOR 1254 (5%), Method: PREINCUBATION
  mutagenic call: inactive; negative
Test System: AMES SALMONELLA TYPHIMURIUM, Strain/Indicator: TA1537, Metabolic Activation: NONE, Method: PREINCUBATION
  mutagenic call: inactive; negative
Test System: AMES SALMONELLA TYPHIMURIUM, Strain/Indicator: TA1537, Metabolic Activation: RAT, LIVER, S-9, AROCLOR 1254 (5%), Method: PREINCUBATION
  mutagenic call: inactive; negative
Test System: AMES SALMONELLA TYPHIMURIUM, Strain/Indicator: TA1538, Metabolic Activation: NONE, Method: PREINCUBATION
  mutagenic call: inactive; negative
Test System: AMES SALMONELLA TYPHIMURIUM, Strain/Indicator: TA1538, Metabolic Activation: RAT, LIVER, S-9, AROCLOR 1254 (5%), Method: PREINCUBATION
  mutagenic call: inactive; negative

## Clc1cccc2ccccc12
Test System: AMES SALMONELLA TYPHIMURIUM, Strain/Indicator: TA97, Metabolic Activation: HAMSTER, LIVER, S-9, AROCLOR 1254 (10%), Method: PREINCUBATION
  mutagenic call: inactive; negative
Test System: AMES SALMONELLA TYPHIMURIUM, Strain/Indicator: TA97, Metabolic Activation: HAMSTER, LIVER, S-9, AROCLOR 1254 (30%), Method: PREINCUBATION
  mutagenic call: active; positive
Test System: AMES SALMONELLA TYPHIMURIUM, Strain/Indicator: TA97, Metabolic Activation: NONE, Method: PREINCUBATION
  mutagenic call: inactive; negative
Test System: AMES SALMONELLA TYPHIMURIUM, Strain/Indicator: TA97, Metabolic Activation: RAT, LIVER, S-9, AROCLOR 1254 (30%), Method: PREINCUBATION
  mutagenic call: inactive; negative
Test System: AMES SALMONELLA TYPHIMURIUM, Strain/Indicator: TA98, Metabolic Activation: HAMSTER, LIVER, S-9, AROCLOR 1254 (30%), Method: PREINCUBATION
  mutagenic call: inactive; negative
[7]
  mutagenic call: inactive; negative
[3]
  mutagenic call: inactive; negative
Test System: AMES SALMONELLA TYPHIMURIUM, Strain/Indicator: TA98, Metabolic Activation: RAT, LIVER, S-9, AROCLOR 1254 (30%), Method: PREINCUBATION
  mutagenic call: inactive; negative
[4]
  mutagenic call: inactive; negative
Test System: AMES SALMONELLA TYPHIMURIUM, Strain/Indicator: TA100, Metabolic Activation: HAMSTER, LIVER, S-9, AROCLOR 1254 (10%), Method: PREINCUBATION
  mutagenic call: inactive; negative
Test System: AMES SALMONELLA TYPHIMURIUM, Strain/Indicator: TA100, Metabolic Activation: HAMSTER, LIVER, S-9, AROCLOR 1254 (30%), Method: PREINCUBATION
  mutagenic call: active; positive
[8]
  mutagenic call: inactive; negative
[5]
  mutagenic call: inactive; negative
Test System: AMES SALMONELLA TYPHIMURIUM, Strain/Indicator: TA100, Metabolic Activation: RAT, LIVER, S-9, AROCLOR 1254 (10 OR 30%), Method: PREINCUBATION
  mutagenic call: inactive; negative
[6]
  mutagenic call: inactive; negative
Test System: AMES SALMONELLA TYPHIMURIUM, Strain/Indicator: TA1535, Metabolic Activation: HAMSTER, LIVER, S-9, AROCLOR 1254 (10 OR 30%), Method: PREINCUBATION
  mutagenic call: inactive; negative
[9]
  mutagenic call: inactive; negative
Test System: AMES SALMONELLA TYPHIMURIUM, Strain/Indicator: TA1535, Metabolic Activation: RAT, LIVER, S-9, AROCLOR 1254 (30%), Method: PREINCUBATION
  mutagenic call: inactive; negative

## CC(C)CC(=O)N=c1sn(C(=O)CC(C)C)c2ccc([N+](=O)[O-])cc12
Test System: AMES SALMONELLA TYPHIMURIUM, Strain/Indicator: TA100, Metabolic Activation: S-9, Method: STANDARD PLATE
  mutagenic call: active; positive
